pKd: −log10 of the molar value.
Legend:
Format in all cases: binding
HuPrP23-231 = biological target: T1, HuPrP23-231 (Homo sapiens, UniProt P04156); details: 0.3-1 mM compound, 20 mM HEPES pH 7.4, 150 mM NaCl, 3% DMSO, 298 K
T1 construct: gene PRNP

HuPrP90-231 [1] = biological target: T2, HuPrP90-231 (Homo sapiens, UniProt P04156)
T2 construct: gene PRNP

HuPrP90-231 [2] = biological target: T2, HuPrP90-231; experiment: biochemical

Cc1nc2cc(Cl)c(Cl)cc2[nH]1 [compound 1, 5,6-dichloro-2-methyl-1H-benzimidazole]
1H-15N TROSY NMR chemical shift perturbation (HuPrP23-231): we observed similar resonance shifts in the full-length protein HuPrP23-231
decrease in melting temperature (HuPrP90-231 [1]): ~ 0.2 °C
pKd (HuPrP90-231 [2]): < 3.00

Reference: article doi:10.1101/2020.06.18.159418v1 (biorxiv, 2020)
